From patent US5945436A, “Pyridylmethyl nitriles, amides and thioamides useful as fungicides” (Uniroyal Chemical Company, Inc., priority 1997, dated 1999)

How the values were obtained:
[1] = tested on: Erysiphe cichoracearum; experiment: Powdery mildew of cucumber, systemic root uptake (CMS); type: in vivo; settings: 45 ml of 250 mg/l, 8 days after inoculation
In short: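 Pot soil of barley (BMS) and cucumber (CMS) plants was drenched with 45 ml of a 250 mg/l acetone/Tween 20 aqueous emulsion, with untreated plants as controls. Disease was scored on a rating scale that included intermediate grades.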

[2] = tested on: Helminthosporium sativum; experiment: Barley spot blotch, foliar treatment (HEL SAT); type: in vivo; settings: foliar, 1,000 mg/l; for pest or weed control at 1000 µg/mL: Helminthosporium, foliar, 216 h, read-out: Percent Reduction of Disease, HEL SAT
In short: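 Percent control of H. sativum blotch was computed after foliar spraying of six-day-old "Robust" barley (10 plants/pot) at 1,000 mg/l versus unsprayed pots. Spore inoculation followed spraying, then 24 h in a 99% humidity chamber and eight days in a 21° C greenhouse.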

[3] = tested on: Erysiphe polygoni; experiment: Powdery mildew on pinto bean, foliar application (ERY POL); type: in vivo; settings: similar procedure as barley (1,000 mg/l); for pest or weed control at 1000 µg/mL: Erysiphe polygoni, read-out: Percent Reduction of Disease, ERY POL
In short: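 Pinto bean plants sprayed with compound emulsion (acetone or inert solvent, TWEEN 20, water) at 1,000 mg/l, or left unsprayed, dried, then inoculated with Erysiphe polygoni spores in a 21° C greenhouse. Disease scored; percent control computed against untreated controls.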

[4] = tested on: Pythium ultimum; experiment: Fungal growth inhibition, treated disc on agar (PYT ULT); type: cell-based; settings: disc dipped in 500 mg/l, 29° C.; for inhibition at 500 µg/mL: Globisporangium ultimum, read-out: Percent Growth Inhibition, PYT ULT
[5] = tested on: Pyricularia oryzae; experiment: whole plant or invertebrate; type: in vivo; settings: for pest or weed control at 1000 µg/mL: Pyricularia oryzae, in Hordeum vulgare, foliar, 216 h, read-out: Percent Reduction of Disease, PYR ORY, barley, foliar, 1,000 mg/l; for Percent Reduction of Disease, PYR ORY: barley, foliar, 1,000 mg/l
[6] = tested on: Scierotinia minor; experiment: Fungal growth inhibition, treated disc on agar (SCL MIN); type: cell-based; settings: disc dipped in 500 mg/l, 29° C.; for inhibition at 500 µg/mL: read-out: Percent Growth Inhibition, SCL MIN
[7] = tested on: Cercosporidium personatum; experiment: Fungal germination and growth, treated disc on agar, scored (CER PER); type: cell-based; parameters: key: 100: Complete inhibition of germination and growth.; 80: Nearly complete inhibition but some growth.; 50: Partial inhibition of growth or, early complete inhibition but later growth begins.; 20: Some inhibition of growth, but not significant.; 0: No inhibition of growth; settings: disc dipped in 500 mg/l, 29° C., numerical score 0-100, spore suspension
Excerpt: Filter paper discs, each 11 mm. in diameter, were dipped in each of the test solutions. The discs were allowed to air dry to drive off the acetone solvent. A number of untreated discs were used as controls. The treated and untreated discs were then placed on agar plates and one of the following fungus species: Septoria nodorum (SEP NOD), Botrytis cinerea (BOT CIN), Fusarium oxysporum (FUS OXY), Pythium ultimum ([…]), Rhizoctonia solani (RHI SOL), Colletotrichum gossypii (COL GOS), and Scierotinia minor (SCL MIN), was added to the center of each disc in the form of a culture plug with the fungus mat in contact with the paper of the test disc. Cercosporidium personatum (CER PER), was added to discs as a spore suspension (20,000 spores/ml) to the disc (two drops of spore suspension per disc), rather than a mycelial culture plug. The plates were then incubated at 29° C. in an oven. In the case of the Cercosporidium personatum (CER PER) fungi, scoring was done on a numerical basis as follows: 100=Complete inhibition of germination and growth. 80=Nearly complete inhibition but some growth. 50=Partial inhibition of growth or, early complete inhibition but later growth begins. 20=Some inhibition of growth, but not significant. 0=No inhibition of growth. The results of all the above tests appear in Table III below under the headings "SEP NOD," "BOT CIN," "FUS OXY," "[…]" "COL GOS" and "CER PER".

[8] = tested on: Colletotrichum gossypii; experiment: Fungal growth inhibition, treated disc on agar (COL GOS); type: cell-based; settings: disc dipped in 500 mg/l, 29° C.; for inhibition at 500 µg/mL: Colletotrichum gossypii, read-out: Percent Growth Inhibition, COL GOS

SMILES | Percent Reduction of Disease, CMS [1] | pest or weed control at 1000 µg/mL [2] | pest or weed control at 1000 µg/mL [3] | inhibition at 500 µg/mL [4] | pest or weed control at 1000 µg/mL [5] | inhibition at 500 µg/mL [6] | CER PER inhibition score [7] | inhibition at 500 µg/mL [8] | Percent Reduction of Disease, HEL SAT [2] | Percent Reduction of Disease, ERY POL [3] | Percent Growth Inhibition, PYT ULT [4] | Percent Reduction of Disease, PYR ORY [5] | Percent Growth Inhibition, SCL MIN [6] | Percent Growth Inhibition, COL GOS [8]
CCCC(C#N)(Cc1ccc(Oc2ccccc2)cc1)c1cccnc1 (stereo not shown) [Compound 17] | 100% | 0% | 100% | 45% | 70% | 10% | 0 | 20% | – | – | – | – | – | –
N#CC(CCCc1ccc(Cl)cc1)(CC1CC1)c1ccccn1 (stereo not shown) [Compound 32] | 0% | – | – | – | – | – | 0 | – | 90% | 100% | 0% | 100% | 98% | 97%
C=CCC(C#N)(CCc1ccc(OCCCC)cc1)c1cccnc1 (stereo not shown) [Compound 56] | 0% | 100% | 90% | 5% | 90% | 45% | 0 | 35% | – | – | – | – | – | –
CCCCC(C#N)(CCc1ccc(C)cc1)c1cccnc1 (stereo not shown) [Compound 34] | 20% | 100% | 100% | 0% | 0% | 100% | 0 | 100% | – | – | – | – | – | –
CCCCOc1ccc(CCC(C#N)(CCC)c2cccnc2)cc1 (stereo not shown) [Compound 57] | 0% | 100% | 90% | 5% | 100% | 65% | 0 | 15% | – | – | – | – | – | –
CC(C)CCC(C#N)(CCc1ccc(F)cc1)c1cccnc1 (stereo not shown) [Compound 55] | 0% | – | – | – | – | – | 0 | – | 90% | 85% | 20% | 70% | 55% | 30%
Cc1ccc(CCC(C#N)(CCC(F)(F)F)c2cccnc2)cc1 (stereo not shown) [Compound 80] | 92% | 100% | 100% | 7% | 78% | 5% | 0 | 59% | – | – | – | – | – | –
CCCCC(C#N)(CCc1ccccc1C(F)(F)F)c1cccnc1 (stereo not shown) [Compound 73] | 0% | 100% | 100% | 69% | 0% | 100% | 0 | 85% | – | – | – | – | – | –
CCCCCC(C#N)(CCc1ccc(F)cc1)c1cccnc1 (stereo not shown) [Compound 60] | 0% | 90% | 90% | 50% | 70% | 100% | 0 | 30% | – | – | – | – | – | –
CCCCC(C#N)(CCCc1ccccc1OC)c1cccnc1 (stereo not shown) [Compound 63] | 0% | 0% | 100% | 10% | 0% | 100% | 0 | 25% | – | – | – | – | – | –
CCCCC(C#N)(CCc1ccccc1F)c1cccnc1 (stereo not shown) [Compound 74] | 80% | 100% | 100% | 36% | 0% | 100% | 0 | 100% | – | – | – | – | – | –
N#CC(CCc1ccccc1)(CCc1ccccc1)c1cccnc1 [A, reference compound] | 50% | 60% | 15% | 10% | 10% | 10% | 0 | 25% | – | – | – | – | – | –
N#CC(CCCC(F)(F)F)(CCc1ccc(F)cc1)c1cccnc1 (stereo not shown) [Compound 78] | 92% | 83% | 92% | 0% | 100% | 20% | 0 | 50% | – | – | – | – | – | –
C=CCC(C#N)(CCc1ccccc1F)c1cccnc1 (stereo not shown) [Compound 67] | 20% | 100% | 100% | 20% | 0% | 100% | 100 | 100% | – | – | – | – | – | –
CCCC(C#N)(CCc1ccc(F)cc1)c1cccnc1 (stereo not shown) [Compound 10] | 88% | 100% | 99% | 40% | 70% | 100% | 100 | 97% | – | – | – | – | – | –
CC(C)CC(C#N)(CCc1ccccc1)c1cccnc1 (stereo not shown) [Compound 7] | 20% | 70% | 100% | 35% | 83% | 10% | 0 | 89% | – | – | – | – | – | –
CC(C)CC(C#N)(CCc1ccc(F)cc1)c1cccnc1 (stereo not shown) [Compound 39] | 0% | 100% | 92% | 44% | 100% | 42% | 0 | 75% | – | – | – | – | – | –
CCCCCCC(C#N)(CCc1ccc(OC)cc1)c1cccnc1 (stereo not shown) [Compound 36] | 0% | 100% | 100% | 75% | 90% | 100% | 0 | 0% | – | – | – | – | – | –
CCCCC(C#N)(CCc1ccc(OCC)cc1)c1cccnc1.Cl (stereo not drawn) [Compound 42, α-butyl-4-ethoxy-α-(3-pyridinyl)-benzenebutanenitrile hydrochloride] | 0% | – | – | – | – | – | 0 | – | 100% | 100% | 3% | 67% | 44% | 100%
CCCCCCC(C#N)(CCc1ccc(F)cc1)c1cccnc1 (stereo not shown) [Compound 45] | 67% | 100% | 90% | 89% | 17% | 100% | 100 | 100% | – | – | – | – | – | –
